Values quoted from earlier work, collected in patent EP2697366B1, “B[…] THE PRESERVATION OF CELLULAR FUN[…] CLINICAL CELL THERAPY” (Johann Wolfgang Goethe-Universität, Frankfurt am Main, priority 2011, dated 2018).

Tests used:
[1] = two large clinical studies
[2] = in vivo

Q: With CC[C@H](C)[C@H](NC(=O)[C@H](CCC(=O)O)NC(=O)[C@H](CCC(=O)O)NC(=O)[C@H](Cc1ccccc1)NC(=O)[C@H](CC(=O)O)NC(=O)CNC(=O)[C@H](CC(N)=O)NC(=O)CNC(=O)CNC(=O)CNC(=O)CNC(=O)[C@@H]1CCCN1C(=O)[C@H](CCCNC(=N)N)NC(=O)[C@@H]1CCCN1C(=O)[C@H](N)Cc1ccccc1)C(=O)N1CCC[C@H]1C(=O)N[C@@H](CCC(=O)O)C(=O)N[C@@H](CCC(=O)O)C(=O)N[C@@H](Cc1ccc(O)cc1)C(=O)N[C@@H](CC(C)C)C(=O)O [Bivalirudin] as the compound, how does the “schwere Blutungskomplikationen” value [1] read?
A: hochsignifikanten Reduktion schwerer Blutungskomplikationen

Q: And the Eliminationshalbwertszeit [2]?
A: ca. 25 Minuten
